Entries after “also recorded” stand apart in the source; their conditions may differ.
How the values were obtained:
[1] = cited from earlier work
[2] = test system: Male Wistar rats; assay: Nicotine and food consumption in rats; format: in vivo
Method: Male Wistar rats (200 g body weight) were divided at random into various groups (N=6 animals per group). Each animal was placed in a stainless steel cage and provided with a known weight of normal rat chow food pellets and drinking bottle containing a known volume of aqueous 0.025% sodium carboxymethylcellulose containing either nicotine acid tartarate to provide a final concentration of 40 μg/ml (in case of control groups) or the same concentration of nicotine plus the indicated concentrations of the whole extract, one of its fractions or peganine. The latter were added in form of their emulsions in 0.25% aqueous sodium carboxymethylcellulose in volumes that provide a final concentration of 0.025% of sodium carboxymethylcellulose in the drinking fluid. The animals were allowed both food and the drinking liquid ad libitum. The room temperature where the animals were placed was maintained at 23±2° C. The light cycle was kept at 12 h light and 12 h dark. The relative humidity was maintained at 75±5%. Both food and drinking liquid consumptions were measured every 2 days and at the end of the treatment which continued for complete seven consecutive days.
All results were reported as their means±s. e. mean with N=number of experiments. Statistical significance between control and treated groups were performed using student's t-test.

[3] = test system: Albino mice; assay: Nicotine-induced convulsions and death in mice; format: in vivo
Method: Albino mice were divided into different groups (N=5) and injected with different doses of nicotine dissolved in water. The animals were injected (i.p) with doses 0.8, 1.6, 3.2 and 6.4 mg/kg. The animals were continuously observed for 2 hours for appearance of any changes in behavior such as tremors, convulsions (clonic or tonic), abnormal movements changes in tail position and shapes, changes in locomotor activity and death.
Then after 5 minutes nicotine LD25 was then administered and the animals were observed continuously for any changes in behavior, convulsions or death. The time of convulsions and death were recorded.

[4] = test system: dopamine turnover in the mesolimbic system; details: dose 5.6 mg/kg; nicotine 1 mg/kg; rats; cited from earlier work
[5] = in vivo; cited from earlier work
[6] = peganine 140 mg/100 ml (1.4 mg/ml) + nicotine 40 μg/ml, vs control
[7] = peganine 140 mg/100 ml + nicotine 40 μg/ml in drinking water, 7 days

O[C@H]1CCN2Cc3ccccc3N=C12 [peganine, 1,2,3,9-tetrahydropyrolo[2,1-b]quinazolin-3-ol]
Effect on isolated gut ([1]; isolated gut): inhibit peristalsis of isolated gut | Cardiac effect ([1]; isolated heart): negative inotropic effect of peganine with reduced coronary flow | % decrease in food consumed [2, 6]: 77.8% | % decrease in nicotine consumed [2, 6]: 79% | Liquid consumed daily per 200 g rat per day [2, 7]: 5.5 ± 0.13 mL | Quantity of food consumed per 200 g rat per day [2, 7]: 5.66 ± 0.3 g | Quantity of nicotine consumed per day [2, 7]: 0.22 mg

CN1CCCC1c1cccnc1 (stereo not drawn) [Nicotine]
Actions ([3]; Nicotine 1.6 mg/kg (i.p)): f) No death; also recorded: a) Increase in locomotor activity; also recorded: b) Raising of tail; also recorded: c) Tremors; also recorded: d) Shaking of the body; also recorded: e) Increase in respiratory rate | Actions ([3]; Nicotine 3.2 mg/kg (i.p)): a) Tremors; also recorded: b) Fanning of tail; also recorded: c) Convulsions (Clonic-type); also recorded: d) Tremors; also recorded: e) Salivation; also recorded: f) No death | Actions ([3]; Nicotine 6.4 mg/kg (i.p)): a) Circular movements; also recorded: b) Convulsions; also recorded: c) Death after 3 minutes

c1cnc2cc3c(cc2n1)[C@@H]1CNC[C@H]3C1 [vareniciline]
Effect on nicotine-induced increase in dopamine turnover [4]: significantly blocked

(−)-cytisine
Blood brain barrier penetrability [5]: poor blood brain barrier penetrability
